The term Ki denotes a dissociation constant, usually derived from enzyme kinetics or from competition with a known ligand.

Counter-ions that a name gives are not always drawn.

For experiment [1], the target named is T1, human dopamine D2L receptors (long isoform) (Homo sapiens, UniProt P14416).
T1 construct: expressed in transfected cells; membranes
The experiment can be described thus: Dopamine D2L receptor binding, [125I] iodospiperone displacement. Conditions: membranes of HEK-293 cells stably expressing human D2L receptor; 0.01 nM [125I] iodospiperone; 25° C., 60 minutes; read-out: Ki(D2)*. The procedure:
(§1) The substance to be tested was either dissolved in methanol/Chremophor® (BASF-AG) or in dimethyl sulfoxide and then diluted with water to the desired concentration.
(§2) Each assay mixture was run in triplicate.
The incubation buffer contained 50 mM tris, 120 mM NaCl, 5 mM KCl, 2 mM CaCl2, 2 mM MgCl2 and 0.1% bovine serum albumin. The buffer was adjusted to pH 7.4 with HCl.
(§3) Measurement and Analysis:
(§4) After having been incubated at 25° C. for 60 minutes, the assay mixtures were filtered through a Whatman GF/B glass fiber filter under vacuum using a cell collecting device. The filters were transferred to scintillation viols using a filter transfer system. After 4 ml of Ultima Gold® (Packard) have been added, the samples were shaken for one hour and the radioactivity was then counted in a Beta-Counter (Packard, Tricarb 2000 or 2200CA). The cpm values were converted into dpm using a standard quench series and the program belonging to the instrument.
(§5) The inhibition curves were analyzed by means of iterative nonlinear regression analysis using the Statistical Analysis System (SAS) which is similar to the “LIGAND” program described by Munson and Rodbard.
(§6) The results of the receptro binding studies are expressed as receptor binding constants Ki(D2) and Ki(D3), respectively, as herein before described, and given in table 2.

The target in experiment [2] is T2, human dopamine D3 receptors (Homo sapiens, UniProt P35462).
T2 construct: expressed in transfected cells; membranes
The experiment can be described thus: Dopamine D3 receptor binding, [125I]-iodosulpride displacement. Conditions: for Ki: membranes of HEK-293 cells stably expressing human D3 receptor, 0.1 nM [125I]-iodosulpride, 25° C., 60 minutes; for Ki(D2)*/Ki(D3)*: selectivity ratio of receptor binding constants D2 versus D3. The procedure:
as §1, §2
The incubation buffer contained 50 mM tris, 120 mM NaCl, 5 mM KCl, 2 mM CaCl2, 2 mM MgCl2 and 0.1% bovine serum albumin, 10 μM quinolone and 0.1% ascorbic acid (prepared fresh daily). The buffer was adjusted to pH 7.4 with HCl.
as §3, §4, §5, §6

T2 sequence (P35462 whole entry): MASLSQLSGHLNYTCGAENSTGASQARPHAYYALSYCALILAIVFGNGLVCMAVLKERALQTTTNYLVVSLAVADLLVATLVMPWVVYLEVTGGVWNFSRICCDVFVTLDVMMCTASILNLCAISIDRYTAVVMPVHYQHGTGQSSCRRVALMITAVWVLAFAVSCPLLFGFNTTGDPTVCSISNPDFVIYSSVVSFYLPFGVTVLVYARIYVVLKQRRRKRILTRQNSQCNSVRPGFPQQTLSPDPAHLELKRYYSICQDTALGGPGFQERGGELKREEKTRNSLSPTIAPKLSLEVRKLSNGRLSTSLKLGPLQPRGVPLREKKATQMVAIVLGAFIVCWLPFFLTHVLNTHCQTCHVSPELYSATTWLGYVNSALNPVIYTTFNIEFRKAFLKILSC
T1 sequence (P14416 whole entry, canonical isoform): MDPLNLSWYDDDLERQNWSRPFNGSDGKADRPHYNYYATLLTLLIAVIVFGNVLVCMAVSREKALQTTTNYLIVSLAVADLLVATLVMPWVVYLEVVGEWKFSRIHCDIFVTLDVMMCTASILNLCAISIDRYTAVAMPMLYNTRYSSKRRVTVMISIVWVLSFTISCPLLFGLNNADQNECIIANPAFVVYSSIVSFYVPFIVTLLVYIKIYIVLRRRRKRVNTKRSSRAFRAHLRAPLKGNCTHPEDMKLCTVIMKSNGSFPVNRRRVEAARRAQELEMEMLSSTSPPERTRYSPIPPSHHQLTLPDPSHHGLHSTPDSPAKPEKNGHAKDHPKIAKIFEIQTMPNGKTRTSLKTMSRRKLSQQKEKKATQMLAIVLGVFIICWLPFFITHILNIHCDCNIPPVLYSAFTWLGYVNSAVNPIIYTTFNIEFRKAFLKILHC

In the case of `CCCN[C@H]1CCc2cc(NS(=O)(=O)c3ccc(OC(F)F)cc3)ccc2C1` [Example 74, 4-Difluoromethoxy-N—((S)-6-propylamino-5,6,7,8-tetrahydro-naphthalen-2-yl)benzenesulfonamide, hydrochloride], the Ki in experiment [1] stood at 250 nM.
With `CCCN[C@@H]1CCc2ccc(NS(=O)(=O)c3ccc(C(C)C)cc3)cc2C1` [Example 2, (R)-4-Isopropyl-N—((R)-7-propylamino-5,6,7,8-tetrahydro-naphthalen-2-yl)benzenesulfonamide], in experiment [2], the affinity corresponds to a Ki of 14 nM and the “Ki(D2)*/Ki(D3)*” value is listed as 32. Also, the Ki in experiment [1] is 442 nM.
In the same order, the values of `C=CCN[C@@H]1CCc2cc(NS(=O)(=O)c3ccc(C(C)C)cc3)ccc2C1.Cl` [Example 6, N—((R)-6-Allylamino-5,6,7,8-tetrahydro-naphthalen-2-yl)-4-isopropyl-benzenesulfonamide, hydrochloride] are 0.28 nM, 52 and 14.5 nM.
For `CCCN[C@H]1CCc2cc(NS(=O)(=O)c3ccc([C@@H](C)C(F)(F)F)cc3)ccc2C1` [Example 41, N—((S)-6-Propylamino-5,6,7,8-tetrahydro-naphthalen-2-yl)-4-((R)-2,2,2-trifluoro-1-methylethyl)-benzenesulfonamide], in that order: 12.2 nM, 101 and 1230 nM.
For `CCCN[C@H]1CCc2cc(NS(=O)(=O)c3ccc(-c4ccon4)s3)ccc2C1` [Example 43, 5-Isoxazol-3-yl-thiophene-2-sulfonic acid ((S)-6-propylamino-5,6,7,8-tetrahydro-naphthalen-2-yl)-amide], in that order: 30.7 nM, 113 and 3480 nM.
Consider `CCCN[C@H]1CCc2cc(NS(=O)(=O)c3ccc(C4CC4(F)F)cc3)ccc2C1.Cl` (stereo partly drawn) [Example 48, 4-(2,2-Difluoro-cyclopropyl)-N—((S)-6-propylamino-5,6,7,8-tetrahydro-naphthalen-2-yl)benzenesulfonamide, hydrochloride], for which, in experiment [2], the Ki amounted to 1.5 nM and the “Ki(D2)*/Ki(D3)*” value is on record as 128.
Turning to `CCC(=O)N1CCC[C@@H]2Cc3cc(NS(=O)(=O)c4ccc(C(C)C)cc4)ccc3C[C@H]21` (relative stereo) [Example 22, trans-4-Isopropyl-N-(1-propionyl-1,2,3,4,4a,5,10,10a-octahydro-benzo[g]quinolin-7-yl)benzenesulfonamide], in experiment [2], the affinity corresponds to a Ki of 19 nM and the “Ki(D2)*/Ki(D3)*” value is 96. For the same molecule, the Ki in experiment [1] was determined as 1830 nM.
`CCCN[C@H]1CCc2cc(NS(=O)(=O)c3ccc(N4CCCC4)cc3)ccc2C1.Cl` [Example 49, N—((S)-6-Propylamino-5,6,7,8-tetrahydro-naphthalen-2-yl)-4-pyrrolidin-1-ylbenzenesulfonamide, hydrochloride]: in experiment [2], the Ki amounted to 1.3 nM and the “Ki(D2)*/Ki(D3)*” value is on record as 63.
`CCCN(CCC)[C@H]1CCc2cc(NS(=O)(=O)c3ccc(C(C)C)cc3)ccc2C1.Cl` [Example 30, N—((S)-6-Dipropylamino-5,6,7,8-tetrahydro-naphthalen-2-yl)-4-isopropylbenzenesulfonamide, hydrochloride]: in experiment [2], the affinity, expressed as Ki, was 0.39 nM and the “Ki(D2)*/Ki(D3)*” value is recorded as 29. In experiment [1], the Ki amounted to 11.3 nM.
With `CCCN[C@H]1CCc2cc(NS(=O)(=O)c3ccc(CCCF)cc3)ccc2C1` [Example 51, 4-(3-Fluoro-propyl)-N—((S)-6-propylamino-5,6,7,8-tetrahydro-naphthalen-2-yl)benzenesulfonamide], in experiment [2], the Ki came out at 1.7 nM and the “Ki(D2)*/Ki(D3)*” value is on record as 56.
`CCCN[C@H]1CCc2cc(NS(=O)(=O)c3ccc(-n4cccn4)cc3)ccc2C1.Cl` [Example 76, N—((S)-6-Propylamino-5,6,7,8-tetrahydro-naphthalen-2-yl)-4-pyrazol-1-ylbenzenesulfonamide, hydrochloride]: in experiment [2], the affinity, expressed as Ki, was 8.62 nM and the “Ki(D2)*/Ki(D3)*” value was found to be 84. The Ki in experiment [1] is 728 nM.
In the same order, the values of `CCCN[C@H]1CCc2cc(NS(=O)(=O)c3ccc(-c4cnco4)s3)ccc2C1` [Example 38, 5-Oxazol-5-yl-thiophene-2-sulfonic acid ((S)-6-propylamino-5,6,7,8-tetrahydro-naphthalen-2-yl)-amide] are 4.81 nM, 151 and 727 nM.
Turning to `CCCN[C@H]1CCc2cc(NS(=O)(=O)c3ccc(CC(F)(F)F)cc3)ccc2C1.Cl` [Example 47, N—((S)-6-Propylamino-5,6,7,8-tetrahydro-naphthalen-2-yl)-4-(2,2,2-trifluoro-ethyl)benzenesulfonamide, hydrochloride], in experiment [2], the Ki turned out to be 5.1 nM and the “Ki(D2)*/Ki(D3)*” value stood at 70.
For `CCCN[C@H]1CCc2cc(NS(=O)(=O)c3ccc(C(C)(C)F)cc3)ccc2C1.O=C(O)C(F)(F)F` [Example 62, 4-(1-Fluoro-1-methyl-ethyl)-N—((S)-6-propylamino-5,6,7,8-tetrahydro-naphthalen-2-yl)benzenesulfonamide, trifluoro acetate], in that order: 6.2 nM and 77.
In the same order, the values of `CCN[C@H]1CCc2cc(NS(=O)(=O)c3ccc(C(C)C)cc3)ccc2C1.Cl` [Example 64, N—((S)-6-Ethylamino-5,6,7,8-tetrahydro-naphthalen-2-yl)-4-isopropyl-benzenesulfonamide, hydrochloride] are 3.4 nM and 70.
In the same order, the values of `CC(C)c1ccc(S(=O)(=O)Nc2ccc3c(c2)CC[C@H](NCCCF)C3)cc1.Cl` [Example 68, N—[(S)-6-(3-Fluoro-propylamino)-5,6,7,8-tetrahydro-naphthalen-2-yl]-4-isopropylbenzenesulfonamide, hydrochloride] are 2 nM and 42.
On to `CCCN[C@H]1CCc2cc(NS(=O)(=O)c3ccc(CCC)s3)ccc2C1.Cl` [Example 52, 5-Propyl-thiophene-sulfonic acid ((S)-6-propylamino-5,6,7,8-tetrahydro-naphthalen-2-yl)amide, hydrochloride], for which, in experiment [2], the affinity corresponds to a Ki of 0.7 nM and the “Ki(D2)*/Ki(D3)*” value was found to be 71.
In the same order, the values of `CCCN[C@H]1CCc2cc(NS(=O)(=O)c3ccc([C@@H](C)CF)cc3)ccc2C1.Cl` [Example 56, 4-((R)-2-Fluoro-1-methyl-ethyl)-N—((S)-6-propylamino-5,6,7,8-tetrahydro-naphthalen-2-yl)benzenesulfonamide, hydrochloride] are 2.4 nM and 161.
In the same order, the values of `CCN[C@H]1CCc2cc(NS(=O)(=O)c3ccc(OC(F)(F)F)cc3)ccc2C1.Cl` [Example 63, N—((S)-6-Ethylamino-5,6,7,8-tetrahydro-naphthalen-2-yl)-4-trifluoromethoxybenzenesulfonamide, hydrochloride] are 30.9 nM and 40.
In the same order, the values of `CCCN[C@H]1CCc2cc(NS(=O)(=O)c3ccc([C@H](C)CF)cc3)ccc2C1.Cl` [Example 55, 4-((S)-2-Fluoro-1-methyl-ethyl)-N—((S)-6-propylamino-5,6,7,8-tetrahydro-naphthalen-2-yl)benzenesulfonamide, hydrochloride] are 1.7 nM and 230.
As to `CCCN[C@H]1CCc2cc(NS(=O)(=O)c3ccc(C(C)=O)cc3)ccc2C1` [Example 60, 4-Acetyl-N—((S)-6-propylamino-5,6,7,8-tetrahydro-naphthalen-2-yl)-benzenesulfonamide], in experiment [2], affinity was put at a Ki of 9.4 nM and the “Ki(D2)*/Ki(D3)*” value is reported as 274.
For `CCCN[C@@H]1CCc2cc(NS(=O)(=O)c3ccc(CCCF)cc3)ccc2C1.Cl` [Example 58, 4-(3-Fluoro-propyl)-N—((R)-6-propylamino-5,6,7,8-tetrahydro-naphthalen-2-yl)benzenesulfonamide, hydrochloride], in that order: 0.15 nM and 229.
For `CCCN[C@H]1CCc2cc(NS(=O)(=O)c3ccc(N(C)C)cc3)ccc2C1.Cl` [Example 50, 4-Dimethylamino-N—((S)-6-propylamino-5,6,7,8-tetrahydro-naphthalen-2-yl)benzenesulfonamide, hydrochloride], in that order: 1.8 nM and 95.
For `CCCN[C@H]1CCc2cc(NS(=O)(=O)c3ccc(OC(F)F)cc3)ccc2C1.Cl` [Example 46, 4-Difluoromethoxy-N—((S)-6-propylamino-5,6,7,8-tetrahydro-naphthalen-2-yl)benzenesulfonamide, hydrochloride], in that order: 2.5 nM and 100.
Take `CCN[C@H]1CCc2cc(NS(=O)(=O)c3ccc(N4CCCC4)cc3)ccc2C1.Cl` [Example 70, N—((S)-6-Ethylamino-5,6,7,8-tetrahydro-naphthalen-2-yl)-4-pyrrolidin-1-ylbenzenesulfonamide, hydrochloride]: in experiment [2], the Ki was 3.6 nM and the “Ki(D2)*/Ki(D3)*” value is on record as 61.
